Results on 19 compounds are retold here after US9546164B2 (GENENTECH, INC., priority 2013, dated 2017).

Data set [1] deals with NaV1.7 (Homo sapiens (Human), UniProt Q15858). The experiment in a line: Patch voltage clamp electrophysiological assay (EP), NaV1.7. Type of data set: cell-based. Conditions: HEK-293 cells stably expressing human NaV1.7 with β1 subunit, whole-cell patch clamp, holding −60 mV. The procedure: Electrophysiological Assay (EP) (In vitro Assay)
Control sodium currents were measured in 0.5% DMSO.
Series resistance compensation was applied (60-80%).
(In general: Patch clamp records ionic current or voltage across a cell membrane.)

Data set [2] has as its target hNav1.7 (Homo sapiens (Human), UniProt Q15858). Put plainly: Tritiated sulfonamide competitive binding to membranes from cells expressing hNav1.7 and the β1 subunit.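 Note: Filter-bound radioactivity counted by liquid scintillation, nonspecific binding defined with excess unlabelled ligand, IC50 fitted to percent inhibition of specific binding.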
Description: Tritiated Sulfonamide Binding to Membranes
Preparation of membranes containing recombinantly expressed sodium channels: Frozen recombinant cell pellets were thawed on ice and diluted to 4 times the cell pellet weight with ice cold 50 mM TrisHCl, pH 7.4 buffer. The cell suspensions were homogenized on ice using a motorized glass douncehomogeniser. Homogenates were further diluted 8.4 times with ice cold 50 mM TrisHCl, pH 7.4 buffer and then centrifuged at 200×g at 4° C. for 15 min. The supersatants were collected and centrifuged at 10000×g at 4° C. for 50 min. The pellets were then re-suspended in 100 mMNaCl, 20 mM TrisHCl, pH. 7.4 buffer containing 1% v/v protease inhibitors (Calbiochem) and re-homogenized on ice. The homogenized membranes were then processed through a syringe equipped with a 26 gauge needle. Protein concentrations were determined by Bradford Assay and the membranes were stored at −80° C.
Radioligand Binding Studies: Saturation experiments. A representative compound of formula (I) having a methyl group was tritiated. Three tritiums were incorporated in place of methyl hydrogens to generate [^3H]compound. Binding of this radioligand was preformed in 5 mL borosilicate glass test tubes at room temperature. Binding was initiated by adding membranes to increasing concentrations of [^3H]compound in 100 mM NaCl, 20 mM TrisHCl, pH 7.4 buffer containing 0.01% w/v bovine serum albumin (BSA) for 18 h. Non-specific binding was determined in the presence of 1 μM unlabelled compound. After 18 h, the reactants were filtered through GF/C glass fiber filters presoaked in 0.5% w/v polyethylene imine. Filters were washed with 15 mL ice cold 100 mM NaCl, 20 mM TrisHCl, pH7.4 buffer containing 0.25% BSA to separate bound from free ligand. [^3H]compound bound to filters was quantified by liquid scintillation counting.
Competitive binding experiments: Binding reactions were preformed its 96-well polypropylene plates at room temperature for 18 h. In 360 μL, membranes were incubated with 100 pM [^3H]compound and increasing concentrations of Test Compound. Non-specific binding was defined in the presence of 1 μM unlabelled compound. Reactions were transferred and filtered through 96-well glass fiber/C filter plates presoaked with 0.5% polyethylene imine. The filtered reactions were washed 5 times with 200 μL ice cold butter containing 0.25% BSA. Bound radioactivity was determined by liquid scintillation counting.
Data Analysis: For saturation experiments, non-specific binding was subtracted from total binding to provide specific binding and these values were recalculated in terms of pmol ligand bound per mg protein. Saturation curves were constructed and dissociation constants were calculated using the single site ligand binding model: Beq=(Bmax*X)/(X+KD), where Beq is the amount of ligand bound at equilibrium, Bmax is the maximum receptor density, Kd is the dissociation constant for the ligand, and X is the tree ligand concentration. For competition studies percent inhibition was determined and IC50 values were calculated using a 4 parameter logistic model (% inhibition=(A+((B−A)/(1+((x/C)^D)))) using XLfit, where A and B are the maximal and minimum inhibition respectively, C is the IC50 concentration and D is the (Hill) slope.
For data set [3], the target named is T1, NaV1.5 (Homo sapiens (Human), UniProt Q14524). The experiment in a line: Patch voltage clamp electrophysiological assay (EP), NaV1.5.
Description: (§1) The following patch voltage clamp electrophysiology studies were performed on representative compounds of the invention using human embryonic kidney cells (HEK), permanently transfected with an expression vector containing the full-length cDNA coding for the desired human sodium channel α-subunit, grown in culture media containing 10% FBS, 1% PSG, and 0.5 mg/mL G418 at 37° C. with 5% CO2. […] The β1 subunit was coexpressed in both the NaV1.7 and NaV1.5 cell lines.
(§2) Sodium currents were measured rising the patch clamp technique in the whole-cell configuration using either a PatchXpress automated voltage clamp or manually using an Axopatch 200B (Axon Instruments) or Model 2400 (A-M systems) amplifier. […] The pipette was filled with a solution comprised of: 5 mM NaCl, 10 mM CsCl, 120 mM CsF, 0.1 mM CaCl2, 2 mM MgCl2, 10 mM HEPES, 10 mM EGTA; and adjusted to pH 7.2 with CsOH. The external solution had the following composition: 140 mM NaCl, 5 mM KCl, 2 mM CaCl2, 1 mM MgCl2, 10 mM HEPES; and adjusted to pH 7.4 with NaOH. In some studies, the external sodium was reduced by equimolar replacement with choline. Osmolality in the CsF internal and NaCl external solutions was adjusted to 300 mOsm/kg and 310 mOsm/kg with glucose, respectively. All recordings were performed at ambient temperature in a bath chamber with a volume of 150 μL. Control sodium currents were measured in 0.5% DMSO. Controls and representative compounds of the invention were applied to the recording chamber through a 4-pinch or 8-pinch valve bath perfusion system manufactured by ALA Scientific Instruments.
(§3) Currents were recorded at 40 kHz sampling frequency, filtered at 5 Hz, and stored using a Digidata-1322A analogue/digital interface with the pClamp software (Axon instruments). Series resistance compensation was applied (60-80%). […] All statistics in this study are given as mean±SD.
(§4) The membrane potential was maintained at a voltage where reactivation of the channel is complete (which was −60 mV for both NaV1.7 and NaV1.5). The voltage is then stepped back to a very negative (Vhold=150 mV) voltage for 20 ms and then a test poise is applied to quantify the compound block. The 20 ms brief repolarization was long enough for compound-free channels to completely recover from fast inactivation, but the compound-bound channels recovered more slowly such that negligible recovery could occur during this interval. The percent decrease in sodium current following wash-on of compound was taken as the percent block of sodium channels.
Data set [4] has as its target T1, NaV1.5.
Description: as §1, §2, §3, §4
[5] abbreviates: read-out: Ligand Binding Assay, 100 pM [3H]compound, membranes with hNav1.7 and β1 subunit, 18 h, room temperature.
[6] abbreviates: read-out: NaV1.5 EP, HEK-293 cells stably expressing human NaV1.5 with β1 subunit, whole-cell patch clamp, holding −60 mV.

Structures can show the parent of a compound that is named as a salt. Where two headings read alike, the source gives them in different places.

T1 sequence (Q14524 whole entry): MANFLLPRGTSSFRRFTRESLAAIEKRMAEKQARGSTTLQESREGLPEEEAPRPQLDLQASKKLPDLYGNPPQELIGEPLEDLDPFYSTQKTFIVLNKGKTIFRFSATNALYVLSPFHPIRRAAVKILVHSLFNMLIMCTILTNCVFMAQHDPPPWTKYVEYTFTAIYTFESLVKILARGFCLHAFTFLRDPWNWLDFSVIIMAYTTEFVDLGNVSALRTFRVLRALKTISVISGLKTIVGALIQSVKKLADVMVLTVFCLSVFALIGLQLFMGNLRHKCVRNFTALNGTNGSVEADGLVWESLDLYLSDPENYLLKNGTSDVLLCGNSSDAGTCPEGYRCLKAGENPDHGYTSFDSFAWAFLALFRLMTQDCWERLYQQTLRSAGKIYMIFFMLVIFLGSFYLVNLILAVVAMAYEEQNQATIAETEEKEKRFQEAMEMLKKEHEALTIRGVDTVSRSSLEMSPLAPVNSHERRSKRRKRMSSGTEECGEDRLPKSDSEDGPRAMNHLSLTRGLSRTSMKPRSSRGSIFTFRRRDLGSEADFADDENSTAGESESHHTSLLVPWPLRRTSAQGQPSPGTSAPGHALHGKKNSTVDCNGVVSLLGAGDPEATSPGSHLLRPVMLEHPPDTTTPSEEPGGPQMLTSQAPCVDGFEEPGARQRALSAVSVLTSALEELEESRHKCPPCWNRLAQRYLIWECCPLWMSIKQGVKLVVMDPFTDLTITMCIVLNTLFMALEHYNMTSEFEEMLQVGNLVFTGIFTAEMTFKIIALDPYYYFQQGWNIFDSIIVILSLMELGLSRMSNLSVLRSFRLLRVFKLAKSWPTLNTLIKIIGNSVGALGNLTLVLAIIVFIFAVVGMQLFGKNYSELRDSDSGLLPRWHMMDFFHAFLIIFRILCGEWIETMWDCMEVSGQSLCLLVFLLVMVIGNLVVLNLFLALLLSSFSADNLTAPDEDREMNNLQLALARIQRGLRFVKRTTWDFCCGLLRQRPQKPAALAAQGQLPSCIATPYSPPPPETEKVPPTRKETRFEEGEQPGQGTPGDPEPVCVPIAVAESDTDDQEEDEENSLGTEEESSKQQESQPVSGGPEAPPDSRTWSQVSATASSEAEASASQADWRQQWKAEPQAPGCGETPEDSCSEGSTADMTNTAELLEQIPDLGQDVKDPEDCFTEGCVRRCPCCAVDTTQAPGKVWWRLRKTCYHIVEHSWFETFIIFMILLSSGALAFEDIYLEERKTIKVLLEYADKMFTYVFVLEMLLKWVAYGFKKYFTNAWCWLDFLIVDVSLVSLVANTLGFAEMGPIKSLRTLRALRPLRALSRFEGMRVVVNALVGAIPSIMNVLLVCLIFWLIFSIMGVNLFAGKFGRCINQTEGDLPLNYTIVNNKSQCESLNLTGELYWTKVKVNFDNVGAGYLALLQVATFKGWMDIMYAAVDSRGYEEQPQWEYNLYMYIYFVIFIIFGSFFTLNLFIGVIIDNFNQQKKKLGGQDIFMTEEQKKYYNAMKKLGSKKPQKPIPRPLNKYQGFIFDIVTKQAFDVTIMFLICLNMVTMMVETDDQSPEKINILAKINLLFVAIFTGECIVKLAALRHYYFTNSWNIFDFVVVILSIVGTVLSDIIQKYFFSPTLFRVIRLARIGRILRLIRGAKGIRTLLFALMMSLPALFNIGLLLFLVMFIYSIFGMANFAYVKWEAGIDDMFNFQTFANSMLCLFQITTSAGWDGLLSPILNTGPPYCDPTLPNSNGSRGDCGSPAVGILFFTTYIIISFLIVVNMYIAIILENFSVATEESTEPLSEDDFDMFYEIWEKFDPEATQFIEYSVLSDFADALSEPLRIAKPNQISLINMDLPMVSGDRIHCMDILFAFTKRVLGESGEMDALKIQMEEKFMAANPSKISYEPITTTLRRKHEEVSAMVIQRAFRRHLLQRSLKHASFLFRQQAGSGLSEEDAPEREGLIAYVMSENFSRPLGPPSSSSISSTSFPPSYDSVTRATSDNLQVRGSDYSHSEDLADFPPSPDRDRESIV
Sequence of NaV1.7 (Q15858 other isoform, or with tags, fused parts or gaps): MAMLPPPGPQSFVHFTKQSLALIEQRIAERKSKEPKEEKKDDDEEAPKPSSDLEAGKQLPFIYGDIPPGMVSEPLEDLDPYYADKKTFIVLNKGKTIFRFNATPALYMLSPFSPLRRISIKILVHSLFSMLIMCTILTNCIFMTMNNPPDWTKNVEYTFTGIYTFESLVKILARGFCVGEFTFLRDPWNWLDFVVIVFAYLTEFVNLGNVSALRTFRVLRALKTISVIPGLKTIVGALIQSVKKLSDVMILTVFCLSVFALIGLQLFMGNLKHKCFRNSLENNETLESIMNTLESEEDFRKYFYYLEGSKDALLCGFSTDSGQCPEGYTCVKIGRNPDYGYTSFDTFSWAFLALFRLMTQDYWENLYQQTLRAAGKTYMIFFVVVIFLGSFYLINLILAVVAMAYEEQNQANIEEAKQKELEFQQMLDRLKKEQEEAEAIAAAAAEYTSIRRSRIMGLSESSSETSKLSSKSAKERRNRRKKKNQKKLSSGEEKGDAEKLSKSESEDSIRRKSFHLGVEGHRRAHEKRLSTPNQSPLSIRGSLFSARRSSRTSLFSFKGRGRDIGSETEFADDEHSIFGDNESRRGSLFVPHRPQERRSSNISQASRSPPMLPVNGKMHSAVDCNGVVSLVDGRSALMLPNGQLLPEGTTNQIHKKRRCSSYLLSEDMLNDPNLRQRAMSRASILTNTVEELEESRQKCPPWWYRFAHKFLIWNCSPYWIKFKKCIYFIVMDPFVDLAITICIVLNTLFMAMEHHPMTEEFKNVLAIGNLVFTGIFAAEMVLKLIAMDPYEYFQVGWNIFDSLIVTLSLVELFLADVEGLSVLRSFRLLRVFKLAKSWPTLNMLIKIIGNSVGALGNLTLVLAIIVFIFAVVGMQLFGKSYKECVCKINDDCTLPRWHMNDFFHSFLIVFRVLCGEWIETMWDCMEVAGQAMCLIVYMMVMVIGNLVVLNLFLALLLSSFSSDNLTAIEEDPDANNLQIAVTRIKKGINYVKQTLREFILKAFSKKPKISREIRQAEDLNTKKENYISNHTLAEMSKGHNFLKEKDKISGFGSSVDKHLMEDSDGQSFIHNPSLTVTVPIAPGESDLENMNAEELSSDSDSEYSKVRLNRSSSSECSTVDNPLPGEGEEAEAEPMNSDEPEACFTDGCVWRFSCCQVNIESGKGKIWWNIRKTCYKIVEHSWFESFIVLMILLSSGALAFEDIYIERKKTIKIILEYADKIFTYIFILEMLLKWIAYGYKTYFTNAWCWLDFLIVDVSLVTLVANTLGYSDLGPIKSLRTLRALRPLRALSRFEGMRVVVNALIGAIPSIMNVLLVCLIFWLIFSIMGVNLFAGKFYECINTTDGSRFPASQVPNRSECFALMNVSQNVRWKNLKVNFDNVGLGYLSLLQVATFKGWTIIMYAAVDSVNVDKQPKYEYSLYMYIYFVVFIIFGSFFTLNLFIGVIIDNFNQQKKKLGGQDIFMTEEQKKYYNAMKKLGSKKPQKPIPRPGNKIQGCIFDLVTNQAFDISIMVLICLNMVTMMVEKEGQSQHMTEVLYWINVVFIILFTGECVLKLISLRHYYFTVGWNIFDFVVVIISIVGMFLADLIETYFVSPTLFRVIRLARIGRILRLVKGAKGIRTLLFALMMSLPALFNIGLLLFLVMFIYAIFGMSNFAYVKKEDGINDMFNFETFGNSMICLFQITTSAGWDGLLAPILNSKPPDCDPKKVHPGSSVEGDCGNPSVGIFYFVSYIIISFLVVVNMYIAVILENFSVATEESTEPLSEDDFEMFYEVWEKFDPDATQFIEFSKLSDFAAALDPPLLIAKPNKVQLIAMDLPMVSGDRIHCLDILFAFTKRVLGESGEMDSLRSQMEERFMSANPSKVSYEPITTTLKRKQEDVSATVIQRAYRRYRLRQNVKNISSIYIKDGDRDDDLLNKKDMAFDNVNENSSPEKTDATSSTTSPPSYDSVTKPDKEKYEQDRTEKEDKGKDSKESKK
Sequence of NaV1.7 (Q07699 19-218 partner): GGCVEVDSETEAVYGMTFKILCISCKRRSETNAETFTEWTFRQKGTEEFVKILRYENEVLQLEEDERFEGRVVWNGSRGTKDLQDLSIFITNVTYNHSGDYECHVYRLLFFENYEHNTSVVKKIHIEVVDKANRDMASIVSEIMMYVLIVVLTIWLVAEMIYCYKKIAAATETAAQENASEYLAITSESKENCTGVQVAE
Sequence of hNav1.7 (Q15858 other isoform, or with tags, fused parts or gaps): as the sequence (Q15858 other isoform, or with tags, fused parts or gaps) above
Sequence of hNav1.7 (Q07699 19-218 partner): as the sequence (Q07699 19-218 partner) above

With `O=C(NS(=O)(=O)N1CCC1)c1cc(C2CC2)c(O[C@@H]2CCCN(Cc3ccccc3)C2)cc1F` [Example 1, (R)—N-(azetidin-1-ylsulfonyl)-4-((1-benzylpiperidin-3-yl)oxy)-5-cyclopropyl-2-fluorobenzamide], the IC50 in data set [1] worked out at 22.6 nM; in data set [2] (setting [5]), 35.6 nM; in data set [3] (setting [6]), 2760 nM.
Take `O=C(NS(=O)(=O)N1CCC1)c1cc(C2CC2)c(O[C@@H]2CCCN(Cc3ccc(F)cc3Cl)C2)cc1F` [Example 6, (R)—N-(azetidin-1-ylsulfonyl)-4-((1-(2-chloro-4-fluorobenzyl)piperidin-3-yl)oxy)-5-cyclopropyl-2-fluoroenzamide]: the IC50 in data set [1] was 0.9 nM; in data set [2] it was 3 nM; in data set [3], 33.1 nM.
Take `CS(=O)(=O)NC(=O)c1cc(C2CC2)c(O[C@@H]2CCCN(Cc3ccc(F)cc3Cl)C2)cc1F` [Example 312, (R)-4-((1-(2-chloro-4-fluorobenzyl)piperidin-3-yl)oxy)-5-cyclopropyl-2-fluoro-N-(methylsulfonyl)benzamide]: the results for the IC50 in data set [1], in data set [2] (setting [5]) and in data set [3] (setting [6]) were less than 1 nM, 2.2 nM and 310 nM, respectively.
Taken in the same sequence, the figures for `CCS(=O)(=O)NC(=O)c1cc(C2CC2)c(OCC2CCN([C@H](COC)c3cc(Cl)cc(Cl)c3)CC2)cc1F` (single isomer, unassigned) [Example 169] were 3 nM, 6.3 nM and 280 nM.
Take `O=C(NS(=O)(=O)C1CC1)c1cc(C2CC2)c(CN2CCO[C@H](Cc3cc(Cl)cc(Cl)c3)C2)cc1F` [Example 464, (R)-5-cyclopropyl-N-(cyclopropylsulfonyl)-4-((2-(3,5-dichlorobenzyl)morpholino)methyl)-2-fluorobenzamide]: the IC50 in data set [1] was less than 3 nM; in data set [2] (setting [5]), 2.7 nM; in data set [3] (setting [6]) it was 109 nM.
As to `CC(C)(c1cc(Cl)cc(Cl)c1)N1CCC[C@@H](Oc2cc(F)c(C(=O)NS(=O)(=O)C3CC3)cc2C2CC2)C1` [Example 495, (R)-5-cyclopropyl-N-(cyclopropylsulfonyl)-4-((1-(2-(3,5-dichlorophenyl)propan-2-yl)oxy)-2-fluorobenzamide, trifluoroacetic acid salt], the IC50 was 0.2 nM in data set [1], 4.4 nM in data set [2] (setting [5]) and 15.4 nM in data set [3] (setting [6]).
Regarding `O=C(NS(=O)(=O)C1CC1)c1cc(C2CC2)c(OCC2CCN(Cc3cc(Cl)cc(Cl)c3)CC2)cc1F` [Example 259, 5-Cyclopropyl-N-(cyclopropylsulfonyl)-4-((1-(3,5-dichlorobenzyl)piperidin-4-yl)methoxy)-2-fluorobenzamide], the IC50 was determined as 23 nM in data set [1], 2.2 nM in data set [2] (setting [5]) and 110 nM in data set [3] (setting [6]).
On to `CCS(=O)(=O)NC(=O)c1cc(C2CC2)c(OCC2CCN([C@@H](COC)c3cc(Cl)cc(Cl)c3)CC2)cc1F` (single isomer, unassigned) [Example 168], for which the IC50 in data set [1] amounted to 3 nM; in data set [2] (setting [5]), 6.2 nM; in data set [3] (setting [6]), 78 nM.
`CS(=O)(=O)NC(=O)c1cc(C2CC2)c(OCC2CCN(Cc3cc(F)cc(C(F)(F)F)c3)CC2)cc1F` [Example 228, 5-Cyclopropyl-2-fluoro-4-((1-(3-fluoro-5-(trifluoromethyl)benzyl)piperidin-4-yl)methoxy)-N-(methylsulfonyl)benzamide]: the values for the IC50 in data set [1], in data set [2] (setting [5]) and in data set [3] (setting [6]) were 31 nM, 5.1 nM and 4100 nM, respectively.
In the case of `CS(=O)(=O)NC(=O)c1cc(C2CC2)c(OCC2CCN(Cc3cc(Cl)cc(Cl)c3C#N)CC2)cc1F` [Example 594, 5-Cyclopropyl-4-((1-(3,5-dichloro-2-cyanobenzyl)piperidin-4-yl)methoxy)-2-fluoro-N-(methylsulfonyl)benzamide], the IC50 in data set [1] was 8.4 nM; in data set [2] (setting [5]) it was 137 nM; in data set [3] (setting [6]), 623 nM.
Taken in the same sequence, the figures for `COC[C@H](c1cc(Cl)cc(Cl)c1)N1CCC(COc2cc(F)c(C(=O)NS(=O)(=O)C3CC3)cc2C2CC2)CC1` (single isomer, unassigned) [Example 165] were 2.4 nM, 2.3 nM and 49 nM.
For the compound `CS(=O)(=O)NC(=O)c1cc(C2CC2)c(CN2CCO[C@H](Cc3cc(Cl)cc(Cl)c3)C2)cc1F` [Example 463, (R)-5-cyclopropyl-4-((2-(3,5-dichlorobenzyl)morpholino)methyl)-2-fluoro-N-(methylsulfonyl)benzamide], the IC50 in data set [1] is less than 3 nM; in data set [2] (setting [5]), 3.8 nM; in data set [3] (setting [6]) it was 669 nM.
As for `CC(C)Oc1ncc(CN2CCC(COc3cc(F)c(C(=O)NS(C)(=O)=O)cc3C3CC3)CC2)cc1Cl` [Example 217, 4-((1-((5-Chloro-6-isopropoxypyridin-3-yl)methyl)piperidin-4-yl)methoxy)-5-cyclopropyl-2-fluoro-N-(methylsulfonyl)benzamide], the values for the IC50 in data set [1] and in data set [3] (setting [6]) were 2.5 nM and 190 nM, respectively.
With `C[C@@H](c1cc(Cl)cc(Cl)c1)N1CCC(COc2cc(F)c(C(=O)NS(C)(=O)=O)cc2C2CC2)CC1` [Example 100, (S)-5-Cyclopropyl-4-((1-(1-(3,5-dichlorophenyl)ethyl)piperidin-4-yl)methoxy)-2-fluoro-N-(methylsulfonyl)benzamide], the IC50 in data set [1] came out at 5.8 nM; in data set [2] (setting [5]) it was 4.19 nM; in data set [3] (setting [6]), 552 nM.
As to `CS(=O)(=O)NC(=O)c1cc(C2CC2)c(OCC2(F)CCN(Cc3cc(C(F)(F)F)cc(Cl)c3F)CC2)cc1F` [Example 346, 4-((1-(3-chloro-2-fluoro-5-(trifluoromethyl)benzyl)-4-fluoropiperidin-4-yl)methoxy)-5-cyclopropyl-2-fluoro-N-(methylsulfonyl)benzamide trifluoroacetic acid salt], the results for the IC50 in data set [1], in data set [2] (setting [5]) and in data set [3] (setting [6]) were 2.2 nM, 4.4 nM and 682000 nM, respectively.
With `O=C(NS(=O)(=O)N1CCC1)c1cc(C2CC2)c(OCC2CC3CCC(C2)N3C(c2ccccc2)c2ccccc2)cc1F` (stereo not drawn) [Example 49, N-(azetidin-1-ylsulfonyl)-4-((8-benzhydryl-8-azabicyclo[3.2.1]-octan-3-yl)methoxy)-5-cyclopropyl-2-fluorobenzamide], the IC50 in data set [4] was 199 nM.
Regarding `O=C(NS(=O)(=O)C1CC1)c1cc(C2CC2)c(CN2CCC(Oc3ncc(C4CC4)cc3Cl)CC2)cc1F` [Example 474, 4-((4-((3-chloro-5-cyclopropylpyridin-2-yl)oxy)piperidin-1-yl)methyl)-5-cyclopropyl-N-(cyclopropylsulfonyl)-2-fluorobenzamide hydrochloride], the IC50 in data set [1] is less than 3 nM; in data set [2] (setting [5]) it was 5.6 nM; in data set [3] (setting [6]), 449 nM.
For `C[C@H](c1ccc(Cl)c(C2CC2)n1)N1CCC[C@@H](Oc2cc(F)c(C(=O)NS(C)(=O)=O)cc2C2CC2)C1` (single isomer, unassigned) [Example 309], the IC50 in data set [1] was 3 nM; in data set [2] (setting [5]), 2.7 nM; in data set [3] (setting [6]), 380 nM.
As to `CCS(=O)(=O)NC(=O)c1cc(C2CC2)c(OCC2CCN([C@@H](c3cc(Cl)cc(Cl)c3)C(C)(C)OC)CC2)cc1F` (single isomer, unassigned) [Example 208], the IC50 in data set [1] was 3 nM; in data set [2] (setting [5]), 1.6 nM; in data set [3] (setting [6]) it was 13 nM.
